Laboratory results published in the supplement of paper PMC8612539.

Tested on: Histophilus somni
Assay: minimum inhibitory concentration (MIC)
Procedure: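 Broth microdilution MIC (Sensititre BOPO7F bovine plate, CLSI methods) of 19 antimicrobials against field isolates of P. multocida, M. haemolytica, H. somni (deep nasopharyngeal swabs) and E. coli, Enterococcus spp. (rectal swabs) from weaned dairy heifers. Incubation 16-24 h at 35 C. MIC is the lowest concentration preventing visible growth. Values with <= or > lie at the tested range limits. Trimethoprim-sulfamethoxazole is given as the trimethoprim component of a 1:19 mixture.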

COc1cc(NS(=O)(=O)c2ccc(N)cc2)nc(OC)n1 [sulfadimethoxine]
Settings	minimum inhibitory concentration [mg/L]
isolate (source animal id): 3	≤ 256
isolate (source animal id): 4	≤ 256
isolate (source animal id): 7	≤ 256
isolate (source animal id): 14	≤ 256
isolate (source animal id): 15	≤ 256
isolate (source animal id): 17	≤ 256
isolate (source animal id): 18	≤ 256
isolate (source animal id): 20	≤ 256
isolate (source animal id): 23	> 256
isolate (source animal id): 45	> 256
isolate (source animal id): 53	> 256
isolate (source animal id): 83	≤ 256
isolate (source animal id): 88	≤ 256
isolate (source animal id): 92	≤ 256
isolate (source animal id): 93	≤ 256
isolate (source animal id): 99	≤ 256
isolate (source animal id): 100	≤ 256
isolate (source animal id): 105	≤ 256
isolate (source animal id): 107	≤ 256
isolate (source animal id): 108	≤ 256
isolate (source animal id): 109	≤ 256
isolate (source animal id): 110	≤ 256
isolate (source animal id): 117	≤ 256
isolate (source animal id): 121	≤ 256
isolate (source animal id): 123	≤ 256
isolate (source animal id): 124	≤ 256
isolate (source animal id): 127	≤ 256
isolate (source animal id): 128	≤ 256
isolate (source animal id): 130	≤ 256
isolate (source animal id): 132	≤ 256
isolate (source animal id): 135	≤ 256
isolate (source animal id): 140	≤ 256
isolate (source animal id): 141	≤ 256
isolate (source animal id): 142	≤ 256
isolate (source animal id): 144	≤ 256
isolate (source animal id): 146	≤ 256
isolate (source animal id): 147	≤ 256
isolate (source animal id): 151	≤ 256
isolate (source animal id): 153	≤ 256
isolate (source animal id): 154	≤ 256
isolate (source animal id): 156	≤ 256
isolate (source animal id): 157	≤ 256
isolate (source animal id): 176	> 256
isolate (source animal id): 183	> 256
isolate (source animal id): 186	> 256
isolate (source animal id): 196	> 256
isolate (source animal id): 198	> 256
isolate (source animal id): 200	> 256
isolate (source animal id): 206	> 256
isolate (source animal id): 208	> 256
isolate (source animal id): 210	> 256
isolate (source animal id): 212	≤ 256
isolate (source animal id): 215	> 256
isolate (source animal id): 216	> 256
isolate (source animal id): 218	≤ 256
isolate (source animal id): 219	> 256
isolate (source animal id): 224	> 256
isolate (source animal id): 228	> 256
isolate (source animal id): 230	> 256
isolate (source animal id): 233	> 256
isolate (source animal id): 238	> 256
isolate (source animal id): 239	≤ 256
isolate (source animal id): 241	> 256
isolate (source animal id): 242	> 256
isolate (source animal id): 243	≤ 256
isolate (source animal id): 245	> 256
isolate (source animal id): 246	> 256
isolate (source animal id): 247	> 256
isolate (source animal id): 248	≤ 256
isolate (source animal id): 250	> 256
isolate (source animal id): 251	> 256
isolate (source animal id): 252	> 256
isolate (source animal id): 254	> 256
isolate (source animal id): 258	≤ 256
isolate (source animal id): 259	> 256
isolate (source animal id): 262	≤ 256
isolate (source animal id): 264	≤ 256
isolate (source animal id): 265	> 256
isolate (source animal id): 266	> 256
isolate (source animal id): 267	> 256
isolate (source animal id): 269	≤ 256
isolate (source animal id): 271	> 256
isolate (source animal id): 272	> 256
isolate (source animal id): 274	≤ 256
isolate (source animal id): 276	≤ 256
isolate (source animal id): 278	> 256
isolate (source animal id): 280	> 256
isolate (source animal id): 281	> 256
isolate (source animal id): 283	≤ 256
isolate (source animal id): 288	≤ 256
isolate (source animal id): 291	≤ 256
isolate (source animal id): 292	> 256
isolate (source animal id): 296	≤ 256
isolate (source animal id): 306	> 256
isolate (source animal id): 336	≤ 256
isolate (source animal id): 337	≤ 256
isolate (source animal id): 341	≤ 256
